Source: patent US7229757B2, “Compounds displayed on icosahedral phage and methods of using same” (Xenoport, Inc., priority 2001, dated 2007)

Target: T1, human folate receptor (Homo sapiens, UniProt P15328)
T1 construct: KB cells, which express high levels of the human folate receptor; endogenous in cells; host or cells: KB cells
Assay: screening of the 36-member folate analog library on T7 phage for uptake into KB cells
Type: cell-based
Details: compound displayed on T7 phage
Experimental: KB cells were grown adherently in folate-free RPMI with 5% fetal bovine serum in a T75 flask. Prior to screening the compound library the media was removed and replaced with folate-free RPMI containing 0.1% BSA. An aliquot of the folate-analog phage library (˜10^9 pfu) was added to the flask containing 10^7 KB cells and incubated for 2 h at 37° C. Following the incubation period, the cells were detached from the flask by adding PBS containing 5 mM EDTA and incubating for 5 minutes at 37° C. The cell suspension was transferred to a tube and cells were pelleted by centrifugation. The cells were washed 3× with PBS followed by a single wash with “stripping” buffer (50 mM glycine, pH 2.8, 500 mM NaCl, 2M urea, 2% polyvinylpyrolidone) to remove phage particles that were both specifically and non-specifically bound to the surface of the cells. The cell suspension was neutralized by the addition of one half volume of 1 M Tris and centrifuged to pellet the cells. Cells were then lysed with PBS containing 1% SDS to recover phage that were endocytosed. To determine the number of recovered phage particles the lysate was titered by preparing a series of dilutions, infecting BL21 cells and plating on LB agar plates. The plates were incubated for 2-3 h at 37° C. until plaques were clearly visible. […]

T1 sequence (P15328 25-234): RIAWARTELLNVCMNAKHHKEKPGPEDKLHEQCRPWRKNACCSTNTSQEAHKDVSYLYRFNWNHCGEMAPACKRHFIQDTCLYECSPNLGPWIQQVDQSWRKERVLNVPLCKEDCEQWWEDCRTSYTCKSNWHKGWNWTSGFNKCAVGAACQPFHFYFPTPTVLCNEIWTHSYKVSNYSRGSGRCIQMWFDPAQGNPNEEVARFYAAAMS

In the case of `NNC(=O)COCCOCCNC(=O)CCC(NC(=O)c1ccc(NCc2cnc3nc(N)nc(O)c3n2)cc1)C(=O)O` (centres unmarked) [folate-hydrazide, Folate-hydrazide], the “share of sequenced random clones from the lysate carrying the clone's DNA tag” value (21 sequences) is reported as 38% and the “enrichment of phage clone in the population recovered from the cell lysate (hybridization to library archive array)” value (2 h at 37° C.) is reported as “the only one enriched”.
